Results as given in US20220386582A1, “METHOD AND DEVICE TO TRAP ACARIDS” (DOMOBIOS, priority 2015, published 2022).

Experiments:
Type in all cases: in vivo
[1] = tested on: mites; assay: Short (5 minutes) exposure without drying time on consecutive days (FIG. 9); details: lavandulol diluted at 10^−6, 5 minutes exposure, no drying time; first day of treatment
Experimental: FIG. 9 is a graph representing the attracting efficiency of a 5 minutes time exposure of a composition comprising lavandulol diluted at 10^−6. The graph represents the percentage of mites trapped by a fabric sprayed with compositions, as a function of the days of exposure to the attracting composition. Similar experiments were performed to determine attractiveness of mites when an attracting solution comprising one or more attractive agents is exposed during a short time without drying time.

[2] = tested on: Dermatophagoides pteronyssinus; assay: Toxicity, indirect contact (inhalation, 24 hours)
Experimental: (§1) FIG. 10 is a set of graphs showing the percentage of dead mites after 24 hours of inhalation of lavandulol at different concentrations (0.18 μL, 3 μL or 8 μL of pure solution) or water (Ctrl). Four species of mites were tested: Dermatophagoides pteronyssinus (DP), Dermatophagoides farinae (DF), Tyrophagus putrescentiae (TP) and Acarus siro (AS).
(§2) The species studied were two species of dust common in mattresses in Eurasia (Dermatophagoides pteronyssinus and Dermatophagoides farinae), and two species of stored food mites common in Eurasia (Tyrophagus putrescentiae and Acarus siro). These four species were reared under defined conditions (20° C. and 75% relative humidity). The house dust mites were fed with human flakes (skin and whiskers obtained by cleaning electric shavers) and stored food mites were fed with fish food. The experiments were performed at 20° C. and 40% relative humidity.
(§3) For each of the four species, a group of a mites (10<n<25) was placed in a Petri dish (diameter 5.5 cm). This dish was then recovered by a filter paper that enabled gas-exchange and placed into another dish (diameter 9 cm), in which was placed a piece of paper filter (5×1 cm) impregnated with lavandulol at various concentration (0.18 μL, 3 μL, or 8 μL of pure solution, corresponding respectively to 0.15 mg, 2.5 mg or 6.67 mg of lavandulol), or with water. The bigger of the two dishes was then covered.
(§4) After 24 hours, the number of dead mites were counted. The death of a mite was determined by reaction to a stimulation with a needle: lack of reaction and the persistence of immobility indicated death. This experiment was repeated three times with the four species.
(§5) Observations and counting of mites were made under binocular microscope (magnification 10×). The set-up is illuminated with a cold lamp (KL 1500 LCD, Schott ●), the lighting is symmetric and the light intensity was 50Klux. The experimental conditions were controlled in the room (T° C.: 19-22° C. and RH 40%).

[3] = tested on: Tyrophagus putrescentiae; assay: Toxicity, indirect contact (inhalation, 24 hours)
Experimental: as §1, §2, §3, §4, §5

[4] = tested on: Dermatophagoides farinae; assay: Toxicity, indirect contact (inhalation, 24 hours)
Experimental: as §1, §2, §3, §4, §5

[5] = tested on: Acarus siro; assay: Toxicity, indirect contact (inhalation, 24 hours)
Experimental: as §1, §2, §3, §4, §5

[6] = tested on: Tyrophagus putrescentiae; assay: Binary choice test in Petri dish, felt with lavandulol composition versus felt with water
Experimental: (§6) A group of mites (20<n<40) was placed in the center of a Petri dish (diameter 5.5 cm) around which two felt pieces (density of 70 mg/cm^2, thickness of 2 mm) were placed equidistant. The first felt piece was impregnated with water and the other felt piece was impregnated with the lavandulol composition at different dilutions. The diluted lavandulol solutions were prepared from a 90-95% pure lavandulol stock solution (Phytolab, catalog No. 80887). Mites moved spontaneously towards one of the two felt pieces. The number of mites migrating to one side or to the other side was counted and this distribution was compared to a situation where mites were placed in a Petri dish containing two felt pieces impregnated with water. Observations, counting, and identification of mites' species were performed under binocular microscope (magnification 10×). The set-up is illuminated with a cold lamp (KL 1500 LCD, Schott ●), the lighting is symmetric and the light intensity was 50Klux. The experimental conditions were controlled in the room (T° C.: 19-22° C. and RH 40%).

[7] = tested on: Acarus siro; assay: as above
Experimental: as §6

[8] = pure lavandulol volumes of 3 μL and 8 μL
[9] = at least at a dilution of 10^−3, even more at least at 10^−6

**Q.** What does the source list for `C=C(C)C(CO)CC=C(C)C` (stereo not drawn) [Lavandulol, 5-Methyl-2-prop-1-en-2-ylhex-4-en-1-ol]?
**A.** percentage of mites attracted in the sheet [1]: very high; mortality of mites by inhalation ([2]; lavandulol volume of 0.18 μL): not lethal; mortality of mites by inhalation [2, 8]: high mortality; mortality of mites by inhalation ([3]; lavandulol volume of 0.18 μL): not lethal; mortality of mites by inhalation [3, 8]: high mortality; mortality of mites by inhalation ([4]; lavandulol volume of 0.18 μL): not lethal; mortality of mites by inhalation [4, 8]: high mortality; mortality of mites by inhalation ([5]; lavandulol volume of 0.18 μL): not lethal; mortality of mites by inhalation [5, 8]: high mortality; Number of mites on the felt piece impregnated with the lavandulol composition ([6]; Dilution 10^−3): 34%; Number of mites on the felt piece impregnated with the lavandulol composition ([6]; Dilution 10^−6): 44%; Number of mites on the felt piece impregnated with the lavandulol composition ([6]; Dilution 10^−7): 48%; Number of mites on the felt piece impregnated with the lavandulol composition ([6]; Dilution 10^−9): 38%; Number of mites on the felt piece impregnated with the lavandulol composition ([6]; Dilution 10^−12): 47%; Number of mites on the felt piece impregnated with the lavandulol composition ([6]; Dilution 10^−13): 49%; Number of mites on the felt piece impregnated with the lavandulol composition ([6]; Dilution 10^−14): 69%; Number of mites on the felt piece impregnated with the lavandulol composition ([6]; Dilution 10^−15): 63%; Number of mites on the felt piece impregnated with the lavandulol composition ([6]; Dilution 10^−16): 60%; Number of mites on the felt piece impregnated with the lavandulol composition ([6]; Dilution Undiluted): 2%; attraction of mites (in words) [6, 9]: efficiently attracts mites; attraction of mites (in words) ([6]; undiluted solution): fails to attract mites; Number of mites on the felt piece impregnated with the lavandulol composition ([7]; Dilution 10^−3): 44%; Number of mites on the felt piece impregnated with the lavandulol composition ([7]; Dilution 10^−6): 48%; Number of mites on the felt piece impregnated with the lavandulol composition ([7]; Dilution 10^−9): 40%; Number of mites on the felt piece impregnated with the lavandulol composition ([7]; Dilution 10^−12): 55%; Number of mites on the felt piece impregnated with the lavandulol composition ([7]; Dilution 10^−14): 54%; Number of mites on the felt piece impregnated with the lavandulol composition ([7]; Dilution 10^−16): 50%; Number of mites on the felt piece impregnated with the lavandulol composition ([7]; Dilution Undiluted): 1.1%; attraction of mites (in words) [7, 9]: efficiently attracts mites; attraction of mites (in words) ([7]; undiluted solution): fails to attract mites
